Measurements reported in US20140024527A1, “HERBICIDAL PYRAZINONES” (E I DU DE NEMOURS AND COMPANY, priority 2011, published 2014).

Legend:
Format in all cases: in vivo
[1] = system: velvetleaf (Abutilon theophrasti); assay: Test A preemergence; settings: 0 to 100 scale, 0 no effect, 100 complete control, approx. 10 days
Source text: (§1) Seeds of barnyardgrass (Echinochloa crus-galli), large crabgrass (Digitaria sanguinalis), giant foxtail (Setaria faberii), morningglory (Ipomoea spp.), pigweed (Amaranthus retroflexus), velvetleaf (Abutilon theophrasti), wheat (Triticum aestivum) and corn (Zea mays) were planted into a blend of loam soil and sand and treated preemergence with a directed soil spray using test chemicals formulated in a non-phytotoxic solvent mixture which included a surfactant. At the same time these species were also treated with postemergence applications of test compounds formulated in the same manner. Plants ranged in height from 2 to 10 cm and were in the one- to two-leaf stage for the postemergence treatments. Treated plants and untreated controls were maintained in a greenhouse for approximately 10 days, after which time all treated plants were compared to untreated controls and visually evaluated for injury. Plant response ratings, summarized in Table A, are based on a 0 to 100 scale where 0 is no effect and 100 is complete control.

[2] = system: pigweed (Amaranthus retroflexus); assay: Test A preemergence; settings: 0 to 100 scale, 0 no effect, 100 complete control, approx. 10 days
Source text: as §1

[3] = system: large crabgrass (Digitaria sanguinalis); assay: Test A preemergence; settings: 0 to 100 scale, 0 no effect, 100 complete control, approx. 10 days
Source text: as §1

[4] = system: morningglory (Ipomoea spp.); assay: Test A preemergence; settings: 0 to 100 scale, 0 no effect, 100 complete control, approx. 10 days
Source text: as §1

[5] = system: wheat (Triticum aestivum); assay: Test A preemergence; settings: 0 to 100 scale, 0 no effect, 100 complete control, approx. 10 days
Source text: as §1

[6] = system: giant foxtail (Setaria faberii); assay: Test A preemergence; settings: 0 to 100 scale, 0 no effect, 100 complete control, approx. 10 days
Source text: as §1

[7] = system: barnyardgrass (Echinochloa crus-galli); assay: Test A preemergence; settings: 0 to 100 scale, 0 no effect, 100 complete control, approx. 10 days
Source text: as §1

corn (Zea mays) [8] = assay: Test A preemergence; settings: 0 to 100 scale, 0 no effect, 100 complete control, approx. 10 days
Source text: as §1

[9] = system: wheat (Triticum aestivum); assay: Test B postemergence; settings: scale 0 to 100
Source text: (§2) Seeds of plant species selected from blackgrass (Alopecurus myosuroides), downy bromegrass (Bromus tectorum), green foxtail (Setaria viridis), Italian ryegrass (Lolium multiflorum), wheat (Triticum aestivum), wild oat (Avena fatua), galium (Galium aparine), bermudagrass (Cynodon dactylon), Surinam grass (Brachiaria decumbens), cocklebur (Xanthium strumarium), corn (Zea mays), large crabgrass (Digitaria sanguinalis), woolly cupgrass (Eriochloa villosa), giant foxtail (Setaria faberii), goosegrass (Eleusine indica), johnsongrass (Sorghum halepense), kochia (Kochia scoparia), lambsquarters (Chenopodium album), morningglory (Ipomoea coccinea), yellow nutsedge (Cyperus esculentus), pigweed (Amaranthus retroflexus), ragweed (Ambrosia elatior), soybean (Glycine max), velvetleaf (Abutilon theophrasti), barley (Hordeum vulgare), canarygrass (Phalaris minor), chickweed (Stellaria media), deadnettle (Lamium amplexicaule) and windgrass (Apera spica-venti) were planted in pots containing Redi-Earth® planting medium (Scotts Company, Marysville, Ohio, USA) comprising spaghnum peat moss, vermiculite, wetting agent and starter nutrients and treated postemergence with test compounds formulated in a non-phytotoxic solvent mixture which included a surfactant. Plants ranged in height from 2 to 18 cm (1- to 4-leaf stage).
(§3) Treated plants and controls were maintained in a greenhouse for 13 to 15 days, after which time all species were compared to controls and visually evaluated. Plant response ratings, summarized in Table B, are based on a scale of 0 to 100 where 0 is no effect and 100 is complete control. A dash (-) response means no test result.

[10] = system: Surinam grass (Brachiaria decumbens); assay: Test B postemergence; settings: scale 0 to 100
Source text: as §2, §3

[11] = system: yellow nutsedge (Cyperus esculentus); assay: Test B postemergence; settings: scale 0 to 100
Source text: as §2, §3

[12] = system: windgrass (Apera spica-venti); assay: Test B postemergence; settings: scale 0 to 100
Source text: as §2, §3

galium (Galium aparine) = assay: Test B postemergence; settings: scale 0 to 100
Source text: as §2, §3

corn (Zea mays) [13] = assay: Test B postemergence; settings: scale 0 to 100
Source text: as §2, §3

[14] = system: velvetleaf (Abutilon theophrasti); assay: Test A postemergence; settings: 0 to 100 scale, 0 no effect, 100 complete control, approx. 10 days
Source text: as §1

[15] = system: pigweed (Amaranthus retroflexus); assay: Test A postemergence; settings: 0 to 100 scale, 0 no effect, 100 complete control, approx. 10 days
Source text: as §1

[16] = system: large crabgrass (Digitaria sanguinalis); assay: Test A postemergence; settings: 0 to 100 scale, 0 no effect, 100 complete control, approx. 10 days
Source text: as §1

[17] = system: morningglory (Ipomoea spp.); assay: Test A postemergence; settings: 0 to 100 scale, 0 no effect, 100 complete control, approx. 10 days
Source text: as §1

[18] = system: wheat (Triticum aestivum); assay: Test A postemergence; settings: 0 to 100 scale, 0 no effect, 100 complete control, approx. 10 days
Source text: as §1

[19] = system: giant foxtail (Setaria faberii); assay: Test A postemergence; settings: 0 to 100 scale, 0 no effect, 100 complete control, approx. 10 days
Source text: as §1

[20] = system: barnyardgrass (Echinochloa crus-galli); assay: Test A postemergence; settings: 0 to 100 scale, 0 no effect, 100 complete control, approx. 10 days
Source text: as §1

corn (Zea mays) [21] = assay: Test A postemergence; settings: 0 to 100 scale, 0 no effect, 100 complete control, approx. 10 days
Source text: as §1

COCCn1c(-c2cccc(F)c2)c(Cl)nc(C(=O)C2=C(O)CCCC2=O)c1=O [Compound 4, 5-chloro-6-(3-fluorophenyl)-3-[(2-hydroxy-6-oxo-1-cyclohexen-1-yl)carbonyl]-1-(2-methoxyethyl)-2(1H)pyrazinone]
80: Plant response rating, Crabgrass, Large ([3]; 125 g ai/ha) | Plant response rating, Pigweed ([15]; 125 g ai/ha) | Plant response rating, Crabgrass, Large ([16]; 125 g ai/ha)
30: Plant response rating, Foxtail, Giant ([6]; 500 g ai/ha) | Plant response rating, Wheat ([9]; 125 g ai/ha) | Plant response rating, Windgrass ([12]; 62 g ai/ha) | Plant response rating, Foxtail, Giant ([19]; 125 g ai/ha)
65: Plant response rating, Surinam Grass ([10]; 125 g ai/ha) | Plant response rating, Nutsedge, Yellow ([11]; 250 g ai/ha) | Plant response rating, Windgrass ([12]; 250 g ai/ha)
70: Plant response rating, Morningglory ([4]; 500 g ai/ha) | Plant response rating, Barnyardgrass ([7]; 500 g ai/ha) | Plant response rating, Surinam Grass ([10]; 250 g ai/ha) | Plant response rating, Foxtail, Giant ([19]; 500 g ai/ha)
0: Plant response rating, Wheat ([5]; 125 g ai/ha) | Plant response rating, Wheat ([5]; 500 g ai/ha) | Plant response rating, Foxtail, Giant ([6]; 125 g ai/ha) | Plant response rating, Barnyardgrass ([7]; 125 g ai/ha) | Plant response rating, Corn (corn (Zea mays) [8]; 125 g ai/ha) | Plant response rating, Corn (corn (Zea mays) [8]; 500 g ai/ha) | Plant response rating, Corn (corn (Zea mays) [13]; 31 g ai/ha) | Plant response rating, Wheat ([18]; 125 g ai/ha) | Plant response rating, Corn (corn (Zea mays) [21]; 125 g ai/ha)
100: Plant response rating, Pigweed ([2]; 500 g ai/ha) | Plant response rating, Crabgrass, Large ([3]; 500 g ai/ha) | Plant response rating, Velvetleaf ([14]; 125 g ai/ha) | Plant response rating, Velvetleaf ([14]; 500 g ai/ha) | Plant response rating, Pigweed ([15]; 500 g ai/ha) | Plant response rating, Crabgrass, Large ([16]; 500 g ai/ha) | Plant response rating, Morningglory ([17]; 500 g ai/ha) | Plant response rating, Barnyardgrass ([20]; 500 g ai/ha)
90: Plant response rating, Velvetleaf ([1]; 500 g ai/ha) | Plant response rating, Morningglory ([17]; 125 g ai/ha)
35: Plant response rating, Wheat ([9]; 250 g ai/ha) | Plant response rating, Corn (corn (Zea mays) [13]; 125 g ai/ha)
55: Plant response rating, Surinam Grass ([10]; 31 g ai/ha) | Plant response rating, Corn (corn (Zea mays) [13]; 250 g ai/ha)
5: Plant response rating, Wheat ([9]; 31 g ai/ha) | Plant response rating, Nutsedge, Yellow ([11]; 31 g ai/ha) | Plant response rating, Windgrass ([12]; 31 g ai/ha)
45: Plant response rating, Nutsedge, Yellow ([11]; 125 g ai/ha)
50: Plant response rating, Galium (galium (Galium aparine); 31 g ai/ha) | Plant response rating, Galium (galium (Galium aparine); 62 g ai/ha)
20: Plant response rating, Wheat ([9]; 62 g ai/ha) | Plant response rating, Nutsedge, Yellow ([11]; 62 g ai/ha) | Plant response rating, Corn (corn (Zea mays) [13]; 62 g ai/ha)
60: Plant response rating, Pigweed ([2]; 125 g ai/ha) | Plant response rating, Surinam Grass ([10]; 62 g ai/ha) | Plant response rating, Barnyardgrass ([20]; 125 g ai/ha)
40: Plant response rating, Velvetleaf ([1]; 125 g ai/ha) | Plant response rating, Windgrass ([12]; 125 g ai/ha) | Plant response rating, Corn (corn (Zea mays) [21]; 500 g ai/ha)
10: Plant response rating, Morningglory ([4]; 125 g ai/ha) | Plant response rating, Wheat ([18]; 500 g ai/ha)

COCCn1c(-c2cc(F)cc(F)c2)c(Cl)nc(C(=O)C2=C(O)CCCC2=O)c1=O [Compound 6, 5-chloro-6-(3,5-difluorophenyl)-3-[(2-hydroxy-6-oxo-1-cyclohexen-1-yl)carbonyl]-1-(2-methoxyethyl)-2(1H)-pyrazinone]
80: Plant response rating, Morningglory ([4]; 500 g ai/ha) | Plant response rating, Nutsedge, Yellow ([11]; 125 g ai/ha) | Plant response rating, Nutsedge, Yellow ([11]; 250 g ai/ha) | Plant response rating, Windgrass ([12]; 125 g ai/ha) | Plant response rating, Windgrass ([12]; 250 g ai/ha) | Plant response rating, Corn (corn (Zea mays) [13]; 250 g ai/ha) | Plant response rating, Crabgrass, Large ([16]; 125 g ai/ha)
0: Plant response rating, Wheat ([5]; 125 g ai/ha) | Plant response rating, Corn (corn (Zea mays) [8]; 125 g ai/ha) | Plant response rating, Wheat ([18]; 125 g ai/ha) | Plant response rating, Corn (corn (Zea mays) [21]; 125 g ai/ha)
90: Plant response rating, Pigweed ([2]; 500 g ai/ha) | Plant response rating, Crabgrass, Large ([3]; 125 g ai/ha) | Plant response rating, Barnyardgrass ([7]; 500 g ai/ha) | Plant response rating, Morningglory ([17]; 125 g ai/ha) | Plant response rating, Foxtail, Giant ([19]; 500 g ai/ha) | Plant response rating, Barnyardgrass ([20]; 125 g ai/ha)
100: Plant response rating, Velvetleaf ([1]; 500 g ai/ha) | Plant response rating, Crabgrass, Large ([3]; 500 g ai/ha) | Plant response rating, Velvetleaf ([14]; 125 g ai/ha) | Plant response rating, Velvetleaf ([14]; 500 g ai/ha) | Plant response rating, Pigweed ([15]; 500 g ai/ha) | Plant response rating, Crabgrass, Large ([16]; 500 g ai/ha) | Plant response rating, Morningglory ([17]; 500 g ai/ha) | Plant response rating, Barnyardgrass ([20]; 500 g ai/ha)
50: Plant response rating, Velvetleaf ([1]; 125 g ai/ha) | Plant response rating, Pigweed ([2]; 125 g ai/ha) | Plant response rating, Wheat ([9]; 125 g ai/ha) | Plant response rating, Galium (galium (Galium aparine); 62 g ai/ha) | Plant response rating, Foxtail, Giant ([19]; 125 g ai/ha)
60: Plant response rating, Wheat ([9]; 250 g ai/ha) | Plant response rating, Windgrass ([12]; 31 g ai/ha) | Plant response rating, Galium (galium (Galium aparine); 125 g ai/ha)
85: Plant response rating, Surinam Grass ([10]; 125 g ai/ha)
70: Plant response rating, Foxtail, Giant ([6]; 500 g ai/ha) | Plant response rating, Pigweed ([15]; 125 g ai/ha)
98: Plant response rating, Surinam Grass ([10]; 250 g ai/ha)
45: Plant response rating, Wheat ([9]; 31 g ai/ha) | Plant response rating, Wheat ([9]; 62 g ai/ha) | Plant response rating, Nutsedge, Yellow ([11]; 62 g ai/ha) | Plant response rating, Corn (corn (Zea mays) [13]; 31 g ai/ha) | Plant response rating, Corn (corn (Zea mays) [13]; 62 g ai/ha)
75: Plant response rating, Surinam Grass ([10]; 31 g ai/ha) | Plant response rating, Surinam Grass ([10]; 62 g ai/ha) | Plant response rating, Windgrass ([12]; 62 g ai/ha)
40: Plant response rating, Morningglory ([4]; 125 g ai/ha) | Plant response rating, Nutsedge, Yellow ([11]; 31 g ai/ha) | Plant response rating, Galium (galium (Galium aparine); 31 g ai/ha) | Plant response rating, Corn (corn (Zea mays) [21]; 500 g ai/ha)
20: Plant response rating, Wheat ([5]; 500 g ai/ha) | Plant response rating, Foxtail, Giant ([6]; 125 g ai/ha) | Plant response rating, Barnyardgrass ([7]; 125 g ai/ha) | Plant response rating, Corn (corn (Zea mays) [8]; 500 g ai/ha) | Plant response rating, Wheat ([18]; 500 g ai/ha)
65: Plant response rating, Galium (galium (Galium aparine); 250 g ai/ha) | Plant response rating, Corn (corn (Zea mays) [13]; 125 g ai/ha)
